Our source for the IC50 values is US20240376084A1, “INHIBITORS OF ALPHA-HEMOLYSIN OF STAPHYLOCOCCUS AUREUS” (Helmholtz-Zentrum Fur Infektionsforschung GmbH, priority 2021, published 2024).

Molecules are shown by their SMILES.

hemolysin alpha from Staphylococcus aureus, sequence (P09616 27-319 limits assumed): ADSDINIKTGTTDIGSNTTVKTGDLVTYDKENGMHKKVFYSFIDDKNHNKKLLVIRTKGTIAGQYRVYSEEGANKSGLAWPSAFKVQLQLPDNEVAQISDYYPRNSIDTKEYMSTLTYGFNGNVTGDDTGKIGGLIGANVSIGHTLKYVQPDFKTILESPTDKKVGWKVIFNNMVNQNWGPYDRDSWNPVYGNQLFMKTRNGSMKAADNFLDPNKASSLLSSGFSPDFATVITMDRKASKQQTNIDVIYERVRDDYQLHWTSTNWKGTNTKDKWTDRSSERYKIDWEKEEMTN

This test concerns the target hemolysin alpha from Staphylococcus aureus (Staphylococcus aureus, UniProt P09616). Description: cell-based.
What is called IC50 is the concentration at which inhibition is half-maximal. The compound `Cc1cc(NS(=O)(=O)c2cc3[nH]c(=O)c(=O)[nH]c3cc2Cl)cc(C)c1-c1ccsc1` [Compound 80, 7-chloro-N-(3,5-dimethyl-4-(thiophen-3-yl)phenyl)-2,3-dioxo-1,2,3,4-tetrahydroquinoxaline-6-sulfonamide] came in with an IC50 of 100 to 1000 nM.
Then `O=c1[nH]c2cc(F)c(S(=O)(=O)Nc3ccc4ccccc4c3)cc2[nH]c1=O` [Compound 95, 7-fluoro-N-(naphthalen-2-yl)-2,3-dioxo-1,2,3,4-tetrahydroquinoxaline-6-sulfonamide], with 100 to 1000 nM.
Then `O=c1[nH]c2cc(Br)c(S(=O)(=O)Nc3ccc(C4CC4)cc3)cc2[nH]c1=O` [Compound 96, 7-bromo-N-(4-cyclopropylphenyl)-2,3-dioxo-1,2,3,4-tetrahydroquinoxaline-6-sulfonamide], with 100 to 1000 nM; and `CCOc1ccc(NS(=O)(=O)c2cc3[nH]c(=O)c(=O)[nH]c3cc2C)cc1` [Compound 111, N-(4-ethoxyphenyl)-7-methyl-2,3-dioxo-1,2,3,4-tetrahydroquinoxaline-6-sulfonamide], with 100 to 1000 nM.
Then `Cc1ccc(-c2ccc(NS(=O)(=O)c3cc4[nH]c(=O)c(=O)[nH]c4cc3C)cc2)cc1` [Compound 115, 7-methyl-N-(4′-methyl-[1,1′-biphenyl]-4-yl)-2,3-dioxo-1,2,3,4-tetrahydroquinoxaline-6-sulfonamide], with 100 to 1000 nM.
In the case of `Cc1cc2[nH]c(=O)c(=O)[nH]c2cc1S(=O)(=O)Nc1ccc(-c2c(C)cccc2C)cc1` [Compound 116, N-(2′,6′-dimethyl-[1,1′-biphenyl]-4-yl)-7-methyl-2,3-dioxo-1,2,3,4-tetrahydroquinoxaline-6-sulfonamide], the IC50 lay within 100 to 1000 nM.
As for `Cc1ccc(-c2ccc(NS(=O)(=O)c3cc4[nH]c(=O)c(=O)[nH]c4cc3C)cc2)c(C)c1` [Compound 118, N-(2′,4′-dimethyl-[1,1′-biphenyl]-4-yl)-7-methyl-2,3-dioxo-1,2,3,4-tetrahydroquinoxaline-6-sulfonamide], the figure is 100 to 1000 nM; as for `Cc1cc2[nH]c(=O)c(=O)[nH]c2cc1S(=O)(=O)Nc1ccc(C#N)cc1` [Compound 129, N-(4-cyanophenyl)-7-methyl-2,3-dioxo-1,2,3,4-tetrahydroquinoxaline-6-sulfonamide], 1000 to 3500 nM.
As for `Cc1cc2[nH]c(=O)c(=O)[nH]c2cc1S(=O)(=O)Nc1cc(C)c(-c2ccncc2)c(C)c1` [Compound 131, N-(3,5-dimethyl-4-(pyridin-4-yl)phenyl)-7-methyl-2,3-dioxo-1,2,3,4-tetrahydroquinoxaline-6-sulfonamide], the IC50 lay in the range of 100 to 1000 nM.
As for `Cc1cc2[nH]c(=O)c(=O)[nH]c2cc1S(=O)(=O)Nc1ccc(N(C)C)cc1` [Compound 133, N-(4-(dimethylamino)phenyl)-7-methyl-2,3-dioxo-1,2,3,4-tetrahydroquinoxaline-6-sulfonamide], the figure is 100 to 1000 nM; as for `Cc1cc(NS(=O)(=O)c2cc3[nH]c(=O)c(=O)[nH]c3cc2Cl)cc(C)c1Br` [Compound 145, N-(4-bromo-3,5-dimethylphenyl)-7-chloro-2,3-dioxo-1,2,3,4-tetrahydroquinoxaline-6-sulfonamide], 100 to 1000 nM.
As for `O=c1[nH]c2cc(F)c(S(=O)(=O)Nc3ccc(Br)c(Cl)c3)cc2[nH]c1=O` [Compound 148, N-(4-bromo-3-chlorophenyl)-7-fluoro-2,3-dioxo-1,2,3,4-tetrahydroquinoxaline-6-sulfonamide], the IC50 is 100 to 1000 nM.
As for `CCCc1ccc(NS(=O)(=O)c2cc3[nH]c(=O)c(=O)[nH]c3cc2C(C)C)cc1` [Compound 151, 7-isopropyl-2,3-dioxo-N-(4-propylphenyl)-1,2,3,4-tetrahydroquinoxaline-6-sulfonamide], the figure is 100 to 1000 nM; as for `CC(C)c1cc2[nH]c(=O)c(=O)[nH]c2cc1S(=O)(=O)Nc1ccc(C2CC2)cc1` [Compound 153, N-(4-cyclopropylphenyl)-7-isopropyl-2,3-dioxo-1,2,3,4-tetrahydroquinoxaline-6-sulfonamide], 100 to 1000 nM.
As for `CC(C)c1cc2[nH]c(=O)c(=O)[nH]c2cc1S(=O)(=O)Nc1ccc(Br)c(Cl)c1` [Compound 154, N-(4-bromo-3-chlorophenyl)-7-isopropyl-2,3-dioxo-1,2,3,4-tetrahydroquinoxaline-6-sulfonamide], the figure is 100 to 1000 nM.
Then `Cc1cc(NS(=O)(=O)c2cc3[nH]c(=O)c(=O)[nH]c3cc2Cl)ccc1-c1ccncc1` [Compound 155, 7-chloro-N-(3-methyl-4-(pyridin-4-yl)phenyl)-2,3-dioxo-1,2,3,4-tetrahydroquinoxaline-6-sulfonamide], with 100 to 1000 nM.
In the case of `Cc1cc(NS(=O)(=O)c2cc3[nH]c(=O)c(=O)[nH]c3cc2Cl)cc(C)c1-c1ccoc1` [Compound 156, 7-chloro-N-(4-(furan-3-yl)-3,5-dimethylphenyl)-2,3-dioxo-1,2,3,4-tetrahydroquinoxaline-6-sulfonamide], the IC50 lay in the range of 100 to 1000 nM.
Then `Cc1cc(NS(=O)(=O)c2cc3[nH]c(=O)c(=O)[nH]c3cc2Cl)cc(C)c1-c1ccncc1` [Compound 157, 7-chloro-N-(3,5-dimethyl-4-(pyridin-4-yl)phenyl)-2,3-dioxo-1,2,3,4-tetrahydroquinoxaline-6-sulfonamide], with 1000 to 3500 nM.
As for `Cc1ccc(-c2ccc(NS(=O)(=O)c3cc4[nH]c(=O)c(=O)[nH]c4cc3F)cc2Cl)o1` [Compound 158, N-(3-chloro-4-(5-methylfuran-2-yl)phenyl)-7-fluoro-2,3-dioxo-1,2,3,4-tetrahydroquinoxaline-6-sulfonamide], the figure is 100 to 1000 nM.
As for `CC(C)c1cc2[nH]c(=O)c(=O)[nH]c2cc1S(=O)(=O)Nc1ccc(-c2ccncc2)c(Cl)c1` [Compound 159, N-(3-chloro-4-(pyridin-4-yl)phenyl)-7-isopropyl-2,3-dioxo-1,2,3,4-tetrahydroquinoxaline-6-sulfonamide], the figure is 1000 to 3500 nM.
Compound `O=c1[nH]c2cc(F)c(S(=O)(=O)Nc3ccc(C(F)(F)F)cc3)cc2[nH]c1=O` [Compound 160, 7-fluoro-2,3-dioxo-N-(4-(trifluoromethyl)phenyl)-1,2,3,4-tetrahydroquinoxaline-6-sulfonamide] registered an IC50 of 1000 to 3500 nM.
Then `CC(C)c1cc2[nH]c(=O)c(=O)[nH]c2cc1S(=O)(=O)Nc1ccc(-c2ccoc2)c(Cl)c1` [Compound 161, N-(3-chloro-4-(furan-3-yl)phenyl)-7-isopropyl-2,3-dioxo-1,2,3,4-tetrahydroquinoxaline-6-sulfonamide], with 100 to 1000 nM; and `Cc1cc(NS(=O)(=O)c2cc3[nH]c(=O)c(=O)[nH]c3cc2F)cc(C)c1Br` [Compound 162, N-(4-bromo-3,5-dimethylphenyl)-7-fluoro-2,3-dioxo-1,2,3,4-tetrahydroquinoxaline-6-sulfonamide], with 100 to 1000 nM.
Then `Cc1cc(NS(=O)(=O)c2cc3[nH]c(=O)c(=O)[nH]c3cc2F)ccc1Br` [Compound 163, N-(4-bromo-3-methylphenyl)-7-fluoro-2,3-dioxo-1,2,3,4-tetrahydroquinoxaline-6-sulfonamide], with 100 to 1000 nM; and `O=c1[nH]c2cc(F)c(S(=O)(=O)Nc3ccc4c(c3)CCCC4)cc2[nH]c1=O` [Compound 164, 7-fluoro-2,3-dioxo-N-(5,6,7,8-tetrahydronaphthalen-2-yl)-1,2,3,4-tetrahydroquinoxaline-6-sulfonamide], with 100 to 1000 nM; and `O=c1[nH]c2cc(F)c(S(=O)(=O)Nc3ccc(C(F)(F)F)c(Cl)c3)cc2[nH]c1=O` [Compound 165, N-(3-chloro-4-(trifluoromethyl)phenyl)-7-fluoro-2,3-dioxo-1,2,3,4-tetrahydroquinoxaline-6-sulfonamide], with 1000 to 3500 nM.
Then `Cc1cc(NS(=O)(=O)c2cc3[nH]c(=O)c(=O)[nH]c3cc2F)cc(C)c1-c1ccoc1` [Compound 166, 7-fluoro-N-(4-(furan-3-yl)-3,5-dimethylphenyl)-2,3-dioxo-1,2,3,4-tetrahydroquinoxaline-6-sulfonamide], with 100 to 1000 nM; and `Cc1cc(NS(=O)(=O)c2cc3[nH]c(=O)c(=O)[nH]c3cc2F)cc(C)c1-c1ccncc1` [Compound 167, N-(3,5-dimethyl-4-(pyridin-4-yl)phenyl)-7-fluoro-2,3-dioxo-1,2,3,4-tetrahydroquinoxaline-6-sulfonamide], with 1000 to 3500 nM.
The compound `Cc1cc(NS(=O)(=O)c2cc3[nH]c(=O)c(=O)[nH]c3cc2F)ccc1-c1ccncc1` [Compound 169, 7-fluoro-N-(3-methyl-4-(pyridin-4-yl)phenyl)-2,3-dioxo-1,2,3,4-tetrahydroquinoxaline-6-sulfonamide] gave an IC50 of 100 to 1000 nM.
As for `CC(C)c1cc2[nH]c(=O)c(=O)[nH]c2cc1S(=O)(=O)Nc1ccc(-c2ccccc2)c(Cl)c1` [Compound 176, N-(2-chloro-[1,1′-biphenyl]-4-yl)-7-isopropyl-2,3-dioxo-1,2,3,4-tetrahydroquinoxaline-6-sulfonamide], the figure is 100 to 1000 nM.
For the compound `CC(C)c1cc2[nH]c(=O)c(=O)[nH]c2cc1S(=O)(=O)Nc1ccc(-c2cccc(Cl)c2)c(Cl)c1` [Compound 178, N-(2,3′-dichloro-[1,1′-biphenyl]-4-yl)-7-isopropyl-2,3-dioxo-1,2,3,4-tetrahydroquinoxaline-6-sulfonamide], the IC50 was in the range of 100 to 1000 nM.
For `Cc1ccc(NS(=O)(=O)c2cc3[nH]c(=O)c(=O)[nH]c3cc2C)cc1` [Compound 179, 7-methyl-2,3-dioxo-N-(p-tolyl)-1,2,3,4-tetrahydroquinoxaline-6-sulfonamide], the IC50 fell in the range of 100 to 1000 nM.
Then `Cc1cc2[nH]c(=O)c(=O)[nH]c2cc1S(=O)(=O)Nc1ccc(N2CCOCC2)cc1` [Compound 180, 7-methyl-N-(4-morpholinophenyl)-2,3-dioxo-1,2,3,4-tetrahydroquinoxaline-6-sulfonamide], with 1000 to 3500 nM; and `Cc1ccc(NS(=O)(=O)c2cc3[nH]c(=O)c(=O)[nH]c3cc2C)cc1Cl` [Compound 181, N-(3-chloro-4-methylphenyl)-7-methyl-2,3-dioxo-1,2,3,4-tetrahydroquinoxaline-6-sulfonamide], with 1000 to 3500 nM.
Then `Cc1cc2[nH]c(=O)c(=O)[nH]c2cc1S(=O)(=O)Nc1ccc(F)c(Cl)c1` [Compound 183, N-(3-chloro-4-fluorophenyl)-7-methyl-2,3-dioxo-1,2,3,4-tetrahydroquinoxaline-6-sulfonamide], with 1000 to 3500 nM.
